Where two headings read alike, the source gives them in different places.
Columns and labels:
AuroraA = target: T1, AuroraA (Homo sapiens, UniProt O14965); assay: PanQinase kinase panel: AuroraA; format: biochemical
T1 construct: purchased Reaction Biology Europe GmbH
T1 sequence (O14965 1-403): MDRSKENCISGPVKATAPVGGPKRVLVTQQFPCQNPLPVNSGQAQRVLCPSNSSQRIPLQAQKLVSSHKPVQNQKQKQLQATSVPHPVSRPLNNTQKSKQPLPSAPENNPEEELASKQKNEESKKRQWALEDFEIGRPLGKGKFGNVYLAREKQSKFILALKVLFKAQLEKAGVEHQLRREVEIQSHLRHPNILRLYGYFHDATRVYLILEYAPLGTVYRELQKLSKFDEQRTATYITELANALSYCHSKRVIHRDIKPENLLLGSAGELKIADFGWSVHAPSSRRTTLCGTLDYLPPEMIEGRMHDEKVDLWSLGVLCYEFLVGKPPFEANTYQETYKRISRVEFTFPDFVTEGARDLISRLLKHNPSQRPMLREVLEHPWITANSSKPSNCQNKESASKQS
Procedure: (§1) Screening procedures were performed in accordance with the company's on-line protocol [accessed on-line Mar.
(§2) For each kinase, the median value of the cpm of three wells was defined as “low control” (n=3). This value reflects unspecific binding of radioactivity to the plate in the absence of a protein kinase but in the presence of the substrate. Additionally, for each kinase the median value of the cpm of three other wells was taken as the “high control,” i.e. full activity in the absence of any inhibitor (n=3). The difference between high and low control of each enzyme was taken as 100% activity.
(§3) As part of the data evaluation the low control of each kinase was subtracted from the high control value as well as from their corresponding “compound values”. The residual activity (in %) for each compound well was calculated by using the following formula: Res. Activity (%)=100×[(signal of compound−low control)/(high control−low control)].

BTK = BTK (Homo sapiens, UniProt Q06187); assay: PanQinase kinase panel: BTK; format: biochemical; parameters: purchased Reaction Biology Europe GmbH
Procedure: as §1, §2
As part of the data evaluation the low control of each kinase was subtracted from the high control value as well as from their corresponding “compound values”.

T98G = assay: Glioblastoma multiforme cell proliferation assay (CellTiter Glo), T98G; format: cell-based; conditions: Homo sapiens; for Emax: read-out: GBM-T-98G Cell Proliferation Emax %
Procedure: Inhibition of glioblastoma multiforme cell proliferation by compounds of the present invention was evaluated in U-87 MG (ATCC; Cat. No. HTB-14; Lot. No. 5018014) and T98G (ATCC; Cat. No. CRL-1690; Lot. No. 58267513) cell lines. These are adherent cell lines isolated from glioblastoma multiforme/malignant glioma, which express both CXCR4 and BTK (see Zhou et al. 2002 and Yue et al. 2017).
Cell viability was analyzed with the CellTiter Glo Cell assay kit ([…], Cat. No. G7573, Lot. No. 0000474103), according to the manufacturer's instruction.
U-87 MG and T98G cells were seeded onto 384-well opaque-walled clear bottom plates (Corning, Cat. No. 3765, Lot. No. 34319047) in EMEM (Invitrogen, Cat. No. 11095-080; Lot. No. 2276656) supplemented with 10% FBS (Invitrogen, Cat. No. 10099-141C, Lot. No. 2145169CP), at a seeding density of 1000 or 1200 cells per well, respectively, and then incubated in 5% CO2 at 37° C. overnight.
Compounds were prepared as stock solutions of 30 mM in DMSO (Sigma, Cat. No. 276855-1L. Lot. No. SHBL5610). Compounds were added to the cells, with 10 dose points in duplicates, in 3-fold dilution from a top concentration of 30 μM (final DMSO concentration […]), and incubated in 5% CO2 at 37° C. for 96 hr.
The 384-well plates were equilibrated at room temperature for approximately 30 min. 25 μl of CellTiter-Glo® Reagent was added to each well and mixed for 10 min on an orbital shaker to induce cell lysis. The 384-well plates were incubated at room temperature for 10 min to stabilize luminescent signal. Luminescence was detected on a PerkinElmer EnVision Multimode Plate Reader (measurement time 0.1s) as relative luminescence units (RLU).

ABL2 = target: T2, ABL2 (Homo sapiens, UniProt P42684); assay: PanQinase kinase panel: ABL2; format: biochemical
T2 construct: purchased Reaction Biology Europe GmbH
Procedure: as §1, §2, §3

LIMK1 = target: T3, LIMK1 (Homo sapiens, UniProt P53667); assay: PanQinase kinase panel: LIMK1; format: biochemical
T3 construct: purchased Reaction Biology Europe GmbH
Procedure: as §1, §2, §3

[1] = at 1 μM, read-out: inhibition of AuroraA
[2] = read-out: INHIBITORY EFFECT @ 1 uM: AuroraA
[3] = read-out: INHIBITORY EFFECT @ 1 uM: BTK
[4] = read-out: INHIBITORY EFFECT @ 1 uM: ABL2
[5] = read-out: INHIBITORY EFFECT @ 1 uM: LIMK1
[6] = Table 6A, cell viability, 96 hr, read-out: T98G IC50

BTK, sequence (Q06187 whole entry): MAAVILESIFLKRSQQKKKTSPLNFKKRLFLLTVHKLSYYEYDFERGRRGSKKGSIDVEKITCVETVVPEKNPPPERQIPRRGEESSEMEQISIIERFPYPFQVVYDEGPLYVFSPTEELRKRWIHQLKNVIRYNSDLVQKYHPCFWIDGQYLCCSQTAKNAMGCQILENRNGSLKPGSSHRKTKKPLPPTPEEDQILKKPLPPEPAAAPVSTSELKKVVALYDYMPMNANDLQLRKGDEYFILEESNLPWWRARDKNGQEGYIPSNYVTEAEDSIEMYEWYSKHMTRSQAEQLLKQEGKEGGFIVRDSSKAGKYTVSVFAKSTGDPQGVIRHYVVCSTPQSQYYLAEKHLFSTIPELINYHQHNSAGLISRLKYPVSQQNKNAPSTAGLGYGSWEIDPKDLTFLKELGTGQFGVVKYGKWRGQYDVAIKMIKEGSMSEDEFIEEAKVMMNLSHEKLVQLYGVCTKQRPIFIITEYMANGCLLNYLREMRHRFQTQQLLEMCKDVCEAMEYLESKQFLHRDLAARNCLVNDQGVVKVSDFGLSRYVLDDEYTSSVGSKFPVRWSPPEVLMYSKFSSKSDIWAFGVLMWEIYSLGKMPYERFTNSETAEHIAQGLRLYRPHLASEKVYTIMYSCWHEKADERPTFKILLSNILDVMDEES
T2 sequence (P42684 whole entry): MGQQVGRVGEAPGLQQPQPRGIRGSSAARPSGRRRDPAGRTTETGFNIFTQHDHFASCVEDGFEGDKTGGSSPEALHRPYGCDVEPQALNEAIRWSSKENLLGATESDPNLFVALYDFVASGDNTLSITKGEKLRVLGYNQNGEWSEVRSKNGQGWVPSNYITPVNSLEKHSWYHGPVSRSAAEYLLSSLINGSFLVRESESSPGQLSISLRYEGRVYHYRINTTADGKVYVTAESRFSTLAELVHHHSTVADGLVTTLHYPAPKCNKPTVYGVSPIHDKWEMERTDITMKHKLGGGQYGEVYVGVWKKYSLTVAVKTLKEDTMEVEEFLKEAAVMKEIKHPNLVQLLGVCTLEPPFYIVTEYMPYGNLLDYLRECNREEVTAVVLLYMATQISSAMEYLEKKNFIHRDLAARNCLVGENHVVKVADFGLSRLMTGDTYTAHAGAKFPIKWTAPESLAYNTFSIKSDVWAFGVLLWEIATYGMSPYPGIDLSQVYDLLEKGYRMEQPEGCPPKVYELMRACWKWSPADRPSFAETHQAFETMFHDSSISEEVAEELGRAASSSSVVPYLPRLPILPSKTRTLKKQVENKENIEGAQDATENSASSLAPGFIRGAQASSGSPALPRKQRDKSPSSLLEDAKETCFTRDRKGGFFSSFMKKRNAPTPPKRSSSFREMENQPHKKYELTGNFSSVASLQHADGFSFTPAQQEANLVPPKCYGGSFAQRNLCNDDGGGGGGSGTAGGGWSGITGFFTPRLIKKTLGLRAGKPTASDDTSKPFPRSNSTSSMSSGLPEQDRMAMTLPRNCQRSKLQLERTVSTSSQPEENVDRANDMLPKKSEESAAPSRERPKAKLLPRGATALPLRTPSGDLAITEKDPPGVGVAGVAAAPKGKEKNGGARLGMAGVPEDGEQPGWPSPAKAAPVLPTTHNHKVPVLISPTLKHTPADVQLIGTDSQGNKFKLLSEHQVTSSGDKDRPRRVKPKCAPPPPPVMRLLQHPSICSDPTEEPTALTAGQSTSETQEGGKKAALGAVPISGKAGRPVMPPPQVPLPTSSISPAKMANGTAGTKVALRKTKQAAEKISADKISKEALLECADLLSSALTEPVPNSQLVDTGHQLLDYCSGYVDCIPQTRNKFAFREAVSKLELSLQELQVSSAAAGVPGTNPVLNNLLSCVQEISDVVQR
T3 sequence (P53667 whole entry): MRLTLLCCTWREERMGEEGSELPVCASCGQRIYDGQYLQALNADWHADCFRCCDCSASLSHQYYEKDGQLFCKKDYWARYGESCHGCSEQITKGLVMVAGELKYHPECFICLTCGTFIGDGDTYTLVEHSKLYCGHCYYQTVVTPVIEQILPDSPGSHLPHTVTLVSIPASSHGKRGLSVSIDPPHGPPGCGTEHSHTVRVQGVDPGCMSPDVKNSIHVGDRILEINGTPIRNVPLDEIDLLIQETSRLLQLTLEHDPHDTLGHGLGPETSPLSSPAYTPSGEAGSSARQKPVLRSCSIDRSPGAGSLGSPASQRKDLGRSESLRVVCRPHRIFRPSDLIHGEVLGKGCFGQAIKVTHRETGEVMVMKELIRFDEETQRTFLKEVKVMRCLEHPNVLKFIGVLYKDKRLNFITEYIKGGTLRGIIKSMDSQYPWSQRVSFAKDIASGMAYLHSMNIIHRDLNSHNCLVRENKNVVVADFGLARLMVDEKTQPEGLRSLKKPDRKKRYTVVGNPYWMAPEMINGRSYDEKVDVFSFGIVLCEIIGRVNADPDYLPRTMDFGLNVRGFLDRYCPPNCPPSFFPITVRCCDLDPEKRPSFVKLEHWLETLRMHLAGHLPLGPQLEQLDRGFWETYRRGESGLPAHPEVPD

SMILES | inhibition at 1 µM (AuroraA; [2]) | inhibition at 1 µM (BTK; [3]) | inhibition at 1 µM (ABL2; [4]) | inhibition at 1 µM (LIMK1; [5]) | further results
O=C(c1ccc(Oc2ccccc2)cc1Cl)c1c[nH]c2ncnc(N[C@@H]3CC[C@@H](CO)OC3)c12 [ARQ-531, (2-chloro-4-phenoxyphenyl) (4-(((3R,6S)-6-(hydroxymethyl)tetrahydro-2H-pyran-3-yl)amino)-7H-pyrrolo[2,3-d]pyrimidin-5-yl) methanone] | 50 to 69% | 90 to 100% | – | – | inhibition at 1 µM (AuroraA; [1]): ≥ 50%
Cc1cccnc1[C@H]1CCC[C@@H](c2ncccc2C)N1CCN1CCN(C(=O)c2ccc(-c3cc4c(-c5cccc(NC(=O)c6ccccc6)c5C)ncnc4[nH]3)cc2)CC1 [Compound I-10, N-(3-(6-(4-(4-(2-((2R,6S)-2,6-bis(3-methylpyridin-2-yl)piperidin-1-yl)ethyl)piperazine-1-carbonyl)phenyl)-7H-pyrrolo[2,3-d]pyrimidin-4-yl)-2-methylphenyl)benzamide] | 50 to 69% | 90 to 100% | 70 to 89% | 70 to 89% | Emax (T98G; Table 6B): 93%; IC50 (T98G; read-out: GBM-T-98G Cell Proliferation IC50 uM): 2.66 µM; inhibition at 1 µM (AuroraA; [1]): 50 to 89%; inhibition at 1 µM (ABL2; at 1 μM, read-out: inhibition of ABL2): 50 to 89%; inhibition at 1 µM (LIMK1; at 1 μM, read-out: inhibition of LIMK1): 50 to 89%; inhibition at 1 µM (BTK; 1 μM, read-out: inhibitor effect on BTK): ≥ 90%
Cc1cc(-c2ccnc(Nc3cnn(CCN4[C@@H](c5ncccc5C)CCC[C@H]4c4ncccc4C)c3)n2)ccc1CNC(=O)N1CC(OC(C)C)C1 [Compound I-11] | – | – | – | – | Emax (T98G; Table 6B): 98%; IC50 (T98G; Table 6B, read-out: GBM-T-98G Cell Proliferation IC50): 3.28 µM
Cc1cccnc1[C@H]1CCC[C@@H](c2ncccc2C)N1CCCCNC(=O)[C@@H]1CC[C@@H](Nc2ncnc3[nH]cc(C(=O)c4ccc(Oc5ccccc5)cc4Cl)c23)CO1 [Compound I-16] | – | – | – | – | IC50 (T98G; [6]): 2.2 µM
Cc1cccnc1[C@H]1CCC[C@@H](c2ncccc2C)N1CCCCNC(=O)OC[C@@H]1CC[C@@H](Nc2ncnc3[nH]cc(C(=O)c4ccc(Oc5ccccc5)cc4Cl)c23)CO1 [Compound I-18] | – | – | – | – | IC50 (T98G; [6]): 2.4 µM
COc1ccc(F)cc1C(=O)NCc1ccc(-c2nn([C@@H](C)C(F)(F)F)c(N)c2C(N)=O)cc1 [LOXO-305, pirtobrutinib] | < 50% | 90 to 100% | < 50% | < 50% | –
C=CC(=O)N1CCC([C@@H]2CCNc3c(C(N)=O)c(-c4ccc(Oc5ccccc5)cc4)nn32)CC1 [Zanubrutinib, (7S)-2-(4-phenoxyphenyl)-7-(1-prop-2-enoylpiperidin-4-yl)-4,5,6,7-tetrahydropyrazolo[1,5-a]pyrimidine-3-carboxamide] | < 50% | – | < 50% | < 50% | –

From patent US20250326753A1, “DUAL CXCR4-BTK INHIBITORS” (X4 Pharmaceuticals, Inc., priority 2022, published 2025)
